Where two headings read alike, the source gives them in different places.
What was measured:
[1] = system: Phosphorylation of ERK½ in A549 cells; assay: Phospho-ERK½ MSD Assay in A549 cells; format: cell-based; settings: 4 hours compound treatment, 10 ng/mL EGF for 10 min, read-out: p-ERK IC50 (A549)
Method: (§1) Phospho-ERK½ MSD Assay: MIA PaCa-2 (ATCC® CRL-1420™) and A549 (ATCC® CCL-185™) cells were cultured in RPMI 1640 Medium (ThermoFisher Scientific 11875093) containing 10% fetal bovine serum (ThermoFisher Scientific 16000044) and 1× penicillin-streptomycin-glutamine (ThermoFisher Scientific 10378016). Sixteen hours prior to compound treatment, MIA PaCa-2 or A549 cells were seeded in 96-well cell culture plates at a density of 25,000 cells/well and incubated at 37° C., 5% CO2. A compound dose-response titration was diluted in growth media, added to appropriate wells of a cell culture plate, and then incubated at 37° C., 5% CO2 for 4 hours. Following compound treatment, cells were stimulated with 10 ng/mL EGF (Roche 11376454001) for 10 min, washed with ice-cold Dulbecco's phosphate-buffered saline, no Ca^2+ or Mg^2+ (ThermoFisher Scientific 14190144), and then lysed in RIPA buffer (50 mM Tris-HCl pH 7.5, 1% Igepal, 0.5% sodium deoxycholate, 150 mM NaCl, and 0.5% sodium dodecyl sulfate) containing protease inhibitors (Roche 4693132001) and phosphatase inhibitors (Roche 4906837001). Cell lysates were stored frozen at −80° C. overnight. Phosphorylation of ERK½ in compound-treated lysates was assayed using Phospho-ERK½ Whole Cell Lysate kits (Meso Scale Discovery K151DWD) according to the manufacturer's protocol. Assay plates were read on a Meso Scale Discovery Sector Imager 6000, and data were analyzed using a 4-parameter logistic model to calculate IC50 values.

[2] = target: GDP-bound protein (aa 1-169), containing both G12C and C118A amino acid substitutions (Homo sapiens, UniProt P01116, C118A/G12C); assay: Coupled Nucleotide Exchange Assay (SOS-mediated nucleotide exchange, AlphaScreen); format: biochemical; settings: 2 hours compound pre-incubation
How it was run: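 His-tagged GDP-bound […] (aa 1-169, G12C/C118A) pre-incubated 2 h with compound titration in 25 mM HEPES pH 7.4, 10 mM MgCl2, 0.01% Triton X-100.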

[3] = system: Phosphorylation of ERK½ in MIA PaCa-2 cells; assay: Phospho-ERK½ MSD Assay in MIA PaCa-2 cells; format: cell-based; settings: 4 hours compound treatment, 10 ng/mL EGF for 10 min, read-out: p-ERK IC50 (MIA PaCa-2)
Method: as §1

[4] = Homo sapiens, MIA PaCa-2, MIA PaCa-2 cells

Sequence of GDP-bound protein (aa 1-169), containing both G12C and C118A amino acid substitutions (P01116 1-169 isoform P01116-2 G12C/C118A): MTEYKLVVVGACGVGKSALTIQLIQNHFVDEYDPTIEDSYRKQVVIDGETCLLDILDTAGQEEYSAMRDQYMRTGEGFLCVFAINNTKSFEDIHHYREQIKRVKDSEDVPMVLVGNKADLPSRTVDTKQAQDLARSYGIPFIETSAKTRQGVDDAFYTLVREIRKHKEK

| IC50 ([1]; Homo sapiens, A549, A549 cells) [µM] | Coupled exchange IC50 [2] [µM] | IC50 [3, 4] [µM] | IC50 ([1]; A549 cells) [µM] | IC50 ([3]; MIA PaCa-2 cells) [µM] | SMILES |
| --- | --- | --- | --- | --- | --- |
| > 100 | 0.894 | 6.07 |  |  | C=CC(=O)N1CCN(c2snc3c(F)c(-c4cc(O)cc5ccccc45)c(Cl)cc23)[C@H](CC)C1 (racemic) [Example 1-8] |
| > 100 | 0.251 | 0.786 |  |  | C=CC(=O)N1CCN(c2snc3c(F)c(-c4nc(N)cc5ccccc45)c(Cl)cc23)CC1 [Example 25, 1-(4-(6-(3-Amino-1-isoquinolinyl)-5-chloro-7-fluoro-2,1-benzothiazol-3-yl)-1-piperazinyl)-2-propen-1-one] |
| > 100 | 0.683 | 4.99 |  |  | C=CC(=O)N1CC(Nc2snc3c(F)c(-c4cc(O)cc5ccccc45)c(Cl)cc23)C1 [Example 1-20, 1-(3-((5-chloro-7-fluoro-6-(3-hydroxy-1-naphthalenyl)-2,1-benzothiazol-3-yl)amino)-1-azetidinyl)-2-propen-1-one] |
| > 100 | 8.01 | 79.7 |  |  | C=CC(=O)N1CCN(c2nnc(Cc3ccccc3)c3cc(-c4c(O)cccc4F)c(Cl)cc23)CC1 [Example 35, 2-(1-(4-acryloyl-1-piperazinyl)-4-benzyl-7-chloro-6-phthalazinyl)-3-fluorophenol] |
|  | 0.256 |  | 26.4 | 0.006 | C=CC(=O)N1CCN(c2nc(=O)n(-c3ccccc3C(C)C)c3cc(-c4c(C)ccc5[nH]ncc45)c(Cl)cc23)[C@@H](C)C1 (single isomer, unassigned) [Example 11-2-2] |
| > 100 | 0.492 | 4.83 |  |  | C=CC(=O)N1CCN(c2snc3c(F)c(-c4cc(O)cc5ccccc45)c(Cl)cc23)C[C@@H]1CO (racemic) [Example 1-16, 1-(4-(5-chloro-7-fluoro-6-(3-hydroxy-1-naphthalenyl)-2,1-benzothiazol-3-yl)-2-(hydroxmethyl)-1-piperazinyl)-2-propen-1-one] |
| > 100 | 0.115 | 0.368 |  |  | C=CC(=O)N1CCN(c2snc3c(F)c(-c4cc(O)cc5ccccc45)c(Cl)cc23)[C@@H](C)C1 (single isomer, unassigned) [Example 1-19-1] |
| > 100 | 2.60 | 21.3 |  |  | C=CC(=O)N1CCN(c2snc3c(F)c(-c4cc(O)cc(F)c4F)c(Cl)cc23)CC1 [Example 3-16, 1-(4-(5-chloro-6-(2,3-difluoro-5-hydroxyphenyl)-7-fluoro-2,1-benzothiazol-3-yl)-1-piperazinyl)-2-propen-1-one] |
| > 100 | 2.56 | 7.66 |  |  | C=CC(=O)N1CCN(c2snc3c(F)c(-c4cc(N)ccc4C)c(Cl)cc23)CC1 [Example 3-12, 1-(4-(6-(5-amino-2-methylphenyl)-5-chloro-7-fluoro-2,1-benzothiazol-3-yl)-1-piperazinyl)-2-propen-1-one] |
| > 100 | 0.516 | 14.7 |  |  | C=CC(=O)N1CCN(c2nnc(-c3ccccc3Cl)c3cc(-c4c(O)cccc4F)c(Cl)cc23)CC1 [Example 10-11, 1-(4-(7-chloro-4-(2-chlorophenyl)-6-(2-fluoro-6-hydroxyphenyl)-1-phthalazinyl)-1-piperazinyl)-2-propen-1-one] |
| > 100 | 0.529 | 2.34 |  |  | C=CC(=O)N1CC2(C1)CN(c1snc3c(F)c(-c4cc(O)cc5ccccc45)c(Cl)cc13)C2 [Example 4-1, 1-(6-(5-Chloro-7-fluoro-6-(3-hydroxynaphthalen-1-yl)benzo[c]isothiazol-3-yl)-2,6-diazaspiro[3.3]heptan-2-yl)prop-2-en-1-one] |
| > 100 | 0.341 | 2.53 |  |  | C=CC(=O)N1CC[C@@H]2[C@H]1CN2c1snc2c(F)c(-c3cc(O)cc4ccccc34)c(Cl)cc12 [Example 5-5, 1-((1R,5R)-6-(5-chloro-7-fluoro-6-(3-hydroxy-1-naphthalenyl)-2,1-benzothiazol-3-yl)-2,6-diazabicyclo[3.2.0]heptan-2-yl)-2-propen-1-one] |
| > 100 | >10 | > 100 |  |  | C=CC(=O)N1CCN(c2snc3cc(-c4cc(OC)cc5ccccc45)c(Cl)cc23)CC1 [Example 1-4, 1-(4-(5-chloro-6-(3-methoxy-1-naphthalenyl)-2,1-benzothiazol-3-yl)-1-piperazinyl)-2-propen-1-one] |
| > 33.3 | 0.095 | 0.017 |  |  | C=CC(=O)N1CCN(c2nc(=O)n(-c3c(CC)cccc3CC)c3nc(-c4c(O)cccc4F)c(Cl)cc23)[C@@H](C)C1 [Example 8-4, 6-chloro-1-(2,6-diethylphenyl)-7-(2-fluoro-6-hydroxyphenyl)-4-((2S)-2-methyl-4-(2 propenoyl)-1-piperazinyl)pyrido[2,3-d]pyrimidin-2(1H)-one] |
| 11.1 | 4.74 | 66.4 |  |  | C=CC(=O)N1CCN(c2snc3c(F)c(-c4cc(O)c(F)cc4F)c(Cl)cc23)CC1 [Example 3-10, 1-(4-(5-chloro-6-(2,4-difluoro-5-hydroxyphenyl)-7-fluoro-2,1-benzothiazol-3-yl)-1-piperazinyl)-2-propen-1-one] |
|  | 5.10 |  | > 100 | > 100 | C=CC(=O)N1CCN(c2snc3c(F)c(-c4cc(O)cc5ccccc45)c(Cl)cc23)[C@@H](C)C1 (single isomer, unassigned) [Example 1-19-2] |
|  | 0.322 |  | > 100 | 0.811 | C=CC(=O)N1CCN(c2nc(=O)n(-c3ccccc3C(C)C)c3cc(-c4c(O)cccc4F)c(Cl)cc23)CC1 (single isomer, unassigned) [Example 8-1-2, 6-Chloro-7-(2-fluoro-6-hydroxyphenyl)-1-(2-(2-propanyl)phenyl)-4-(4-(2-propenoyl)-1-piperazinyl)-2(1H)-quinazolinone] |
| > 100 | 0.610 | 3.25 |  |  | C=CC(=O)N1CCN(c2snc3c(F)c(-c4cc(O)cc5ccccc45)c(Cl)cc23)C[C@@H]1C [Example 5-4, 1-((2S)-4-(5-chloro-7-fluoro-6-(3-hydroxy-1-naphthalenyl)-2,1-benzothiazol-3-yl)-2-methyl-1-piperazinyl)-2-propen-1-one] |
| > 100 | 9.07 | 23.7 |  |  | C=CC(=O)N1CCN(c2snc3c(F)c(-c4cccc5cccnc45)c(Cl)cc23)CC1 [Example 3-24, 1-(4-(5-chloro-7-fluoro-6-(quinolin-8-yl)benzo[c]isothiazol-3-yl)piperazin-1-yl)prop-2-en-1-one] |
| > 100 | 0.562 | 4.7 |  |  | C=CC(=O)N1CCN(c2snc3c(F)c(-c4cc(O)cc5ccccc45)c(Cl)cc23)[C@@H](CO)C1 [Example 1-15] |
| > 100 | 3.76 | > 100 |  |  | C=CC(=O)N1CCN(c2nnc(Cc3ccc(F)cc3)c3cc(-c4c(O)cccc4F)c(Cl)cc23)CC1 [Example 29, 1-(4-(7-Chloro-4-(4-fluorobenzyl)-6-(2-fluoro-6-hydroxyphenyl)-1-phthalazinyl)-1-piperazinyl)-2-propen-1-one] |
| > 100 | 7.51 | 58 |  |  | C=CC(=O)N1CCN(c2nnc(-c3ccccc3)c3cc(-c4c(O)cccc4F)c(Cl)cc23)CC1 [Example 30, 2-(1-(4-Acryloyl-1-piperazinyl)-7-chloro-4-phenyl-6-phthalazinyl)-3-fluorophenol] |

| SMILES | IC50 ([1]; Homo sapiens, A549, A549 cells) [µM] | Coupled exchange IC50 [2] [µM] | IC50 [3, 4] [µM] | IC50 ([1]; A549 cells) [µM] | IC50 ([3]; MIA PaCa-2 cells) [µM] |
| --- | --- | --- | --- | --- | --- |
| C=CC(=O)N1CCN(c2nnc(-c3ccccc3CC)c3cc(-c4c(O)cccc4F)c(Cl)cc23)CC1 [Example 10-5, 1-(4-(7-chloro-4-(2-ethylphenyl)-6-(2-fluoro-6-hydroxyphenyl)-1-phthalazinyl)-1-piperazinyl)-2-propen-1-one] | > 100 | 0.297 | 3.41 |  |  |
| C=CC(=O)N1CCN(c2snc3nc(-c4c(O)cccc4F)c(Cl)cc23)[C@@H](C)C1 (racemic) [Example 2-3, 1-(4-(5-chloro-6-(2-fluoro-6-hydroxyphenyl)[1,2]thiazo[3,4-b]pyridin-3-yl)-3-methyl-1-piperazinyl)-2-propen-1-one] | > 100 | 4.05 | 6.53 |  |  |

Source: patent US11285135B2 (AMGEN INC., priority 2016, dated 2022)
